Reference: US7041702B1, “Pharmaceutically active compounds and methods of use” (Scion Pharmaceuticals, Inc., priority 1997, dated 2006)

How the values were obtained:
mouse = conditions: recognized model for evaluation of neuroprotective drugs; cited from earlier work
[1] = in vivo; cited from earlier work
in vivo models of stroke = conditions: variety of in vivo models of stroke; cited from earlier work
DBA/2 mice = assay: In vivo anticonvulsant activity in the DBA/2 mouse model (mouse audiogenic assay); conditions: vs vehicle controls, HCl salt form
Protocol: As discussed above, preferred compounds of the invention in a standard anticonvulsant in vivo audiogenic test, such as the audiogenic mouse assay of Example 11 which follows, where DBA/2 mice about 20–23 days old are injected intraperitoneally with a test compound 30 minutes prior to being placed in a bell jar with exposure to auditory stimulus of 12 KHz sine wave at 110–120 db. References herein in vivo “audiogenic assay” are intended to refer to that protocol. […] As discussed above, activity in the audiogenic assay has been recognized as indicative that a test compound has neuroprotective properties. See, e.g., M. Tricklebank et al., European Journal of Pharmacology, supra; T. Seyfried, Federation Proceedings, supra.
Compounds were tested for their effectiveness in preventing seizures in DBA/2 mice which have a unique sensitivity to auditory stimulation. Exposure to loud high-frequency sounds can trigger seizure activity in these animals. This sensitivity develops from postnatal day 12 and peaks around day 21 and slowly diminishes as the animals mature. The unusual response to auditory stimulation in this strain of mouse is believed to be due to a combination of early myelination (causing an unusually low excitatory threshold) and delayed development of inhibitory mechanisms.
Mice were injected intraperitoneally with the compound specified in Table I below or with vehicle control, 30 minutes prior to being placed in a bell jar and turning on the auditory stimulus (12 KHz sine wave at 110–120 db). Administered doses are specified in Table I as milligram of compound per kilogram bodyweight of mouse. The auditory stimulus was left on for 60 seconds and mice reactions were timed and recorded. Percentage inhibition was determined with reference to vehicle controls. All compounds were tested in HCl salt form.

[2] = dose 20 mg/kg intraperitoneally 30 minutes prior to auditory stimulus (12 KHz, 110–120 db)

Compound	melting point	Audiogenic Response % Inhib. (DBA/2 mice; [2])	also measured
Cl.N/C(=N\C(=O)c1cccs1)NCCc1ccccc1	198 to 200 °C	–	–
CCCCOc1ccc(C(=O)/N=C(\N)NCCc2c[nH]c3ccccc23)cc1.Cl	158 to 162 °C	–	–
C[C@]12N[C@H](Cc3ccccc31)c1ccccc12 [MK-801]	–	–	activity in mouse audiogenic tests (mouse): good activity; toxicity [1]: has shown toxicity; results in in vivo models of stroke (in vivo models of stroke): good results
CCCCOc1ccc(NC(=N)NCCCCc2ccccc2)cc1 [N-(4-butoxyphenyl)-N′-(4-phenylbutyl)guanidine]	–	97%	–
CCOc1ccc(NC(=N)NCCCCc2ccccc2)cc1 [N-(4-ethoxyphenyl)-N′-(4-phenylbutyl)guanidine]	–	60%	–
COc1ccc(C(=O)/N=C(\N)NCCCCc2ccccc2)cc1.Cl [N-(4-methoxybenzoyl)-N′-(4-phenylbutyl)guanidine, hydrochloride]	172 to 174 °C	42%	–
COc1ccc(NC(=N)Nc2ccc(C(C)C)cc2)cc1 [N-(4-methoxyphenyl)-N′-(4-isopropylphenyl)guanidine]	–	56%	–
Cc1ccc(C(=O)/N=C(\N)Nc2ccc(C(C)C)cc2)cc1.Cl [N-(4-methylbenzoyl)-N′-(4-isopropylphenyl)guanidine, hydrochloride]	–	30%	–
Cc1ccc(C(=O)/N=C(\N)NCCCCc2ccccc2)cc1.Cl [N-(4-methylbenzoyl)-N′-(4-phenylbutyl)guanidine, hydrochloride]	–	75%	Audiogenic Response % Inhib. (DBA/2 mice; dose 10 mg/kg intraperitoneally 30 minutes prior to auditory stimulus (12 KHz, 110–120 db)): 16%
